Data published in patent EP2845588A1, “PIN1 inhibitors for use in the prevention and/or treatment of theileriosis, and related applications” (Centre National de la Recherche Scientifique (CNRS), priority 2013, dated 2015).

Key:
[1] = biological target: T1, TaPIN Mutant A53P (Theileria annulata, UniProt Q4UG71, A53P); assay: CyclinD1-Luciferase reporter assay, TaPIN Mutant A53P in TBL3 cells; format: cell-based, T. annulata; conditions: parasite-infected cells (TBL3)
T1 construct: expressed in transfected cells; host or cells: TBL3 (T. annulata-infected bovine B cells), electroporated with pRev-HA-FLAG-TaPIN A53P-RIL2
Source text: After sequencing the TaPIN gene expressed in Buparvaquone-resistant infected cells, the Ala53Pro point mutation identified in said gene was introduced into the pRev-HA-FLAG-TaPIN WT-RIL2 plasmid using the set of primers of sequence SEQ ID NO:41 and SEQ ID NO:42 following a 3-step PCR protocol.
(§1) Bovine cells were transfected with the 5xHRE (Staller et al., 2003) or CyclinD1- (Wulf et al., 2001) Luciferase reporters, using electroporation (Neon kit, Invitrogen, CA, USA). Mouse cells were transfected using Lipofectamine 2000 (Invitrogen, CA, USA). Transfections efficiencies were normalized to Renilla activity by co-transfection of a pRL-TK Renilla reporter plasmid (Promega, Ref.: E6241). Luciferase assays were performed 36h post-transfection using the Dual-Luciferase Reporter Assay System (Promega, Ref: E1980) in a microplate luminometer. Relative luminescence was represented as the ratio Firefly/Renilla luminescence, compared with the corresponding empty vector control. The 5xHRE promoter-Luciferase construct was obtained from P Staller (Biotech Research & Innovation Centre, Copenhagen, […]).

[2] = test system: HepG2 cells; assay: Cell viability XTT assay, HepG2; format: cell-based, human; conditions: 72h
Protocol: (§2) All infected bovine cell lines used in this study were previously described: TBL3 cells were derived from in vitro infection of the spontaneous bovine-B lymphosarcoma cell line, BL3, with Hissar stock of T.annulata. The TpMD409 lymphocyte cell line are infected with T. parva. The culture conditions of these cell lines were previously described by Moreau et al., 1999. Cells were cultured in RPMI 1640 (Gibco-BRL, Paisley, UK), supplemented with 10% heat-inactivated Fetal calf serum, 4mM L-Glutamine, 25mM HEPES, 10µM β-mercaptoethanol and 100µg/ml penicillin/streptomycin in a humidified 5%CO2 atmosphere at 37°C. HepG2, NIH/3T3 and MEF cells lines were cultured in DMEM (Gibco-BRL, Paisley, UK), supplemented with 10% heat-inactivated Fetal calf serum, 4mM L-Glutamine, 25 mM HEPES, 10µM β-mercaptoethanol and 100µg/ml penicillin/streptomycin in a humidified 5% CO2 atmosphere at 37°C. Cell numbers, as judged by Trypan Blue exclusion test, were determined by counting cells using a Countess automated cell counter (Invitrogen, CA, USA). The anti-parasite drug Buparvaquone (BW720c) was used at 200ng/ml for 72 hours. BW720c has no effect on growth of uninfected cells.
1×10^4 cells were plated in 96-well plates in triplicate and Buparvaquone, Juglone or PiB was added. […]

[3] = test system: host bovine bPIN1; assay: Quantitative PCR of host bPIN1 transcripts; format: cell-based
Protocol: (§3) Total cellular RNAs were extracted using an RNeasy Plus Mini Kit (Qiagen, Hilden, Germany) and parasite RNAs were extracted using the classical Trizol Protocol. cDNA synthesis was performed with the Reverse Transcriptase Superscript III (Invitrogen, CA, USA).
(§4) Quantitative PCR amplification was performed in the ABI 7500 machine (Applied Biosystems, CA, USA) using the Sybr Green reagent (Applied Biosystems, CA, USA) using the primers listed in Table 5 below. The detection of a single product was verified by dissociation curve analysis. Relative quantities of mRNA were analyzed using the delta Ct method. The βactin qPCR was used for normalization. Table 5: qPCR primers

[4] = test system: FBW7 and c-Jun in TBL3 cells; assay: Immunoblot of FBW7 and c-Jun protein in TBL3 cells; format: cell-based, bovine
Protocol: Total proteins were extracted with Laemmli lysis, sonicated: 15 secs ON / 30 secs OFF for 5 min, resolved on 10.5% acrylamide/bis-acrylamide SDS-PAGE gels and transferred to nitrocellulose membranes (Thermo Fisher Scientific, MA, USA) in transfer buffer. Protein transfer was assessed by Ponceau-red staining. Membranes were blocked in Tris-buffered saline pH7.4 containing 0.1% Tween-20 and 5% milk for 1 h at room temperature. Incubations with primary antibodies were carried out at 4°C overnight using antibody dilutions as manufacturer recommendations in Trisbuffered saline pH7.4, 0.05% Tween-20 and 5% milk. Following 1 h incubation with an anti-rabbit or anti-mouse peroxidase-conjugated antibody (Sigma, St Louis, MO, USA) at room temperature, proteins were detected by chemiluminescence (Thermo Fisher Scientific, MA, USA) following the manufacturer's instructions. The following antibodies were used: Rabbit anti-TaPIN (Home-made antibody, Proteogenix, Peptide used: […]-Cys), rabbit anti-PIN1 (Cell Signaling, Ref: 3722), rabbit anti-TaActin (kindly provided by Jake Baum, Australia), rabbit anti-c-Jun (Santa Cruz, CA, USA Ref: sc1694), mouse anti-αTubulin (Sigma, Ref: T9026), , rabbit anti-HIF1α (Abcam, Cambridge, UK; Ref: ab75918), rabbit anti-Hexokinase II (Cell Signaling, Ref: C64G5), rabbit anti-PDK1 (Cell signaling, Ref: C47H1), mouse anti-HA (Roche, Ref: 11583816001), rabbit anti-FBW7 (Bethyl Laboratories, Ref: A301-721A), rabbit anti-Histone H3 (Abcam, Ref: ab1791), rabbit anti-PKM2 (Abcam, Ref: ab38237), mouse anti-Actin (Sigma, Ref: A1978) and monoclonal anti-FLAG M2-Peroxidase (Sigma, Ref: A8592). c-Jun, FBW7 or PKM2/Actin ratios were calculated after Western blot signal quantification with the Plot Lanes Analysis tool of Image J software (National Institutes of Health, Bethesda, MD, USA).

[5] = test system: c-Jun and FBW7 ubiquitination in TBL3 cells; assay: Ubiquitination of endogenous c-Jun and FBW7 in TBL3 cells; format: cell-based, bovine
[6] = test system: TpPIN1 (TP01_0114) transcripts; assay: Quantitative PCR of TpPIN transcripts in T.parva-infected cells; format: cell-based
Protocol: as §3, §4

[7] = test system: Parasite-infected TBL3 cells; assay: Cell proliferation, live cell count after trypan blue exclusion, TBL3; format: cell-based, bovine; conditions: live cells counted after trypan blue exclusion
Protocol: as §2, with “cells. […]” for “cells.”

[8] = biological target: T2, TaPIN WT (Theileria annulata, UniProt Q4UG71); assay: CyclinD1-Luciferase reporter assay, TaPIN WT in TBL3 cells; format: cell-based, T. annulata; conditions: parasite-infected cells (TBL3)
T2 construct: expressed in transfected cells; host or cells: TBL3 (T. annulata-infected bovine B cells), electroporated with the pREV-HA-FLAG-RIL2 TaPIN plasmid
Protocol: as §1

[9] = test system: TaPIN transcripts; assay: Quantitative PCR of TaPIN transcripts in T.annulata-infected cells; format: cell-based
Protocol: as §3, §4

For `CC(C)(C)C1CCC(CC2=C(O)C(=O)c3ccccc3C2=O)CC1` (centres unmarked) [Buparvaquone, 2-((4-tert-butylcyclohexyl)methyl)-3-hydroxy-1,4-naphthoquinone], the “CyclinD1 promoter activation induced by the TaPIN Mutant A53P” value [1] was “no significant effect”, the “viability of HepG2 cells” value [2] was “reduce the viability” and the “level of RNA transcripts encoding the host bovine bPIN1 protein” value [3] was “not affected”. For the same molecule, the FBW7 protein [4] was “induced”, the c-Jun levels [4] was “reduced” and the “ubiquitination of endogenous c-Jun protein” value ([5]; TBL3 cells) was “elevated”. The “rescue of the drug effect on c-Jun ubiquitination by overexpressing the TaPIN A53P mutant” value ([5]; TBL3 cells overexpressing TaPIN A53P) was “rescued”, the TpPIN1 transcripts [6] was “reduced” and the cell proliferation [7] was “reduced”. The “CyclinD1 promoter activation by TaPIN WT” value [8] was “reversed” and the TaPIN transcripts [9] was “lost”.
For `CCOC(=O)CN1C(=O)c2ccc3c4c(ccc(c24)C1=O)C(=O)N(CC(=O)OCC)C3=O` [PiB, benzo[Imn][3,8]phenanthroline-2,7-diacetic acid, 1,3,6,8-tetrahydro-1,3,6,8-tetraoxo-, diethyl ester], the FBW7 protein [4] was “induced”, the c-Jun levels [4] was “reduced” and the cell proliferation [7] was “affects TBL3 cell proliferation”.
